Experimental data taken from patent US20260347338A1, “PYRIMIDINE/PYRIDINE DERIVATIVES OR SALTS THEREOF AND PHARMACEUTICAL COMPOSITIONS COMPRISING THE SAME” (YUHAN CORPORATION, priority 2023, published 2026).
Where a name gives a salt, the structure may show the parent alone.

Biological target: T1, human recombinant HPK1 (Homo sapiens, UniProt Q92918)
T1 construct: purchased BPS Bioscience
Experiment: Inhibitory activity against human recombinant HPK1 (TR-FRET)
Assay type: biochemical
Conditions: ULight-p70S6K peptide, ATP at Km, room temperature, 1 hour, 0.32 to 1000 nM compound
In short: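 Recombinant human HPK1 with ULight-p70S6K peptide and ATP at Km, 1 h at room temperature in HEPES pH 7.4 buffer with Mg2+, Mn2+, EGTA, DTT; compounds 0.32–1000 nM final. EDTA stop, Eu-anti-phosphopeptide TR-FRET read (665 nm); IC50 from % inhibition versus DMSO, binned A–D at 10, 50, 100 nM.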

T1 sequence (Q92918 whole entry): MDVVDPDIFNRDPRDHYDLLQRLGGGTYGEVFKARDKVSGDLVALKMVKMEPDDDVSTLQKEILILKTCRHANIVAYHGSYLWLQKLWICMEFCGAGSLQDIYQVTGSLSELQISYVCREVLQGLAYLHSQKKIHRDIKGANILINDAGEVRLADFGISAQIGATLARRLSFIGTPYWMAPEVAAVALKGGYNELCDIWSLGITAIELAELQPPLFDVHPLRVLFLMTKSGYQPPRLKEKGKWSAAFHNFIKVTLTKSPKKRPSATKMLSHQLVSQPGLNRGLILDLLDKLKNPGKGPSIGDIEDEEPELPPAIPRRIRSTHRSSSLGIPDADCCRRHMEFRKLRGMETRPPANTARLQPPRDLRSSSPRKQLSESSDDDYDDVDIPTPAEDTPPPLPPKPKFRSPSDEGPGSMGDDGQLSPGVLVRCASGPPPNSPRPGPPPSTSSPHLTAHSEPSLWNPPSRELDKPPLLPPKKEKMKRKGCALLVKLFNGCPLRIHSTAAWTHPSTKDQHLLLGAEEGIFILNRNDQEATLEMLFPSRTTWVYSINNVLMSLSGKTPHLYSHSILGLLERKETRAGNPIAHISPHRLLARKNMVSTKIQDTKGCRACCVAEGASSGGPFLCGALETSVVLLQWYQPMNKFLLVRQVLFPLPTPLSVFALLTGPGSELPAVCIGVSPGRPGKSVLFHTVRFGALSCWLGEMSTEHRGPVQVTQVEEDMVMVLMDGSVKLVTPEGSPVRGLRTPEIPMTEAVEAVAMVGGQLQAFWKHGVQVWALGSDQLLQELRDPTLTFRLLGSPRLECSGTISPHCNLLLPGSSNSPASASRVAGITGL

`COc1cc(F)cc(F)c1-c1nccc(Nc2cc(N3CCC[C@H](N)C3)c(-c3cnn(CC(F)(F)F)c3)cn2)n1` [Example 109, (S)-N-(4-(3-aminopiperidin-1-yl)-5-(1-(2,2,2-trifluoroethyl)-1H-pyrazol-4-yl)pyridin-2-yl)-2-(2,4-difluoro-6-methoxyphenyl)pyrimidin-4-amine] was tested. Which IC50 did it give?
Its IC50 is no more than 0.01 µM.

`O[C@H]1CCCN(c2cc(Nc3ccnc(-c4ccc5nccnc5c4)n3)ncc2-c2cnn(C3CCOCC3)c2)C1` [Example 28, (S)-1-(2-((2-(quinoxalin-6-yl)pyrimidin-4-yl)amino)-5-(1-(tetrahydro-2H-pyran-4-yl)-1H-pyrazol-4-yl)pyridin-4-yl)piperidin-3-ol] was tested. Which IC50 did it give?
Its IC50 is 0.01 to 0.05 µM.

For `N[C@H]1CCCN(c2cc(Nc3ccnc(-c4cccnc4O)n3)ncc2-c2cnn(C3CCOCC3)c2)C1` [Example 80, (S)-3-(4-((4-(3-aminopiperidin-1-yl)-5-(1-(tetrahydro-2H-pyran-4-yl)-1H-pyrazol-4-yl)pyridin-2-yl)amino)pyrimidin-2-yl)pyridin-2-ol hydrochloride], which IC50 is on record?
Its IC50 is no more than 0.01 µM.

How did the IC50 turn out when `COc1cccc(F)c1-c1nccc(Nc2cc(N3CCC[C@H](N)C3)c(-c3cnn(CC(C)(C)O)c3)cn2)n1` [Example 235, (S)-1-(4-(4-(3-aminopiperidin-1-yl)-6-((2-(2-fluoro-6-methoxyphenyl)pyrimidin-4-yl)amino)pyridin-3-yl)-1H-pyrazol-1-yl)-2-methylpropan-2-ol hydrochloride] was run?
The IC50 was no more than 0.01 µM.

For `COc1cccc(F)c1-c1nccc(Nc2cc(N3CCC[C@H](O)C3)c(-c3ccc(N4CCN(C)CC4)cc3)cn2)n1` [Example 19, (S)-1-(2-((2-(2-fluoro-6-methoxyphenyl)pyrimidin-4-yl)amino)-5-(4-(4-methylpiperazin-1-yl)phenyl)pyridin-4-yl)piperidin-3-ol], which IC50 is on record?
The IC50 was no more than 0.01 µM.

Which IC50 does the source give for `COc1cccc(F)c1-c1nccc(Nc2cc(N3CCC[C@H](O)C3)c(C(=O)N[C@@H]3CCN(C)C3)cn2)n1` [Example 192, 6-((2-(2-fluoro-6-methoxyphenyl)pyrimidin-4-yl)amino)-4-((S)-3-hydroxypiperidin-1-yl)-N-((R)-1-methylpyrrolidin-3-yl)nicotinamide] here?
Its IC50 is 0.01 to 0.05 µM.

Which IC50 does the source give for `COc1cc(F)cc(F)c1-c1nccc(Nc2cc(N3C[C@@H](N)C[C@@H](F)C3)c(-c3cnn(CC(F)(F)F)c3)cn2)n1` [Example 324, N-(4-((3S,5R)-3-amino-5-fluoropiperidin-1-yl)-5-(2-(2,2,2-trifluoroethyl)-1H-pyrazol-4-yl)pyridin-2-yl)-2-(2,4-difluoro-6-methoxyphenyl)pyrimidin-4-amine] here?
The IC50 was no more than 0.01 µM.

How did the IC50 turn out when `COc1cccc(F)c1-c1nc(Nc2cc(N3CCC[C@H](N)C3)c(-c3cnn(C(F)F)c3)cn2)ccc1[N+](=O)[O-]` [Example 146, 4-((S)-3-aminopiperidin-1-yl)-5-(1-(difluoromethyl)-1H-pyrazol-4-yl)-N-(6-(2-fluoro-6-methoxyphenyl)-5-nitropyridin-2-yl)pyridin-2-amine hydrochloride] was run?
Its IC50 is no more than 0.01 µM.

Which IC50 does the source give for `COc1cccc(F)c1-c1nccc(Nc2cc(N3CCC[C@H](N)C3)c(-c3cnn(CF)c3)cn2)n1` [Example 247, (S)-N-(4-(3-aminopiperidin-1-yl)-5-(1-(fluoromethyl)-1H-pyrazol-4-yl)pyridin-2-yl)-2-(2-fluoro-6-methoxyphenyl)pyrimidin-4-amine hydrochloride] here?
The IC50 was no more than 0.01 µM.

How did the IC50 turn out when `COc1cccc(F)c1-c1nccc(Nc2cc(N3CCC[C@@H](C(N)=O)C3)c(-c3cnn(C4CCOCC4)c3)cn2)n1` [Example 51, (R)-1-(2-((2-(2-fluoro-6-methoxyphenyl)pyrimidin-4-yl)amino)-5-(1-(tetrahydro-2H-pyran-4-yl)-1H-pyrazol-4-yl)pyridin-4-yl)piperidin-3-carboxamide] was run?
The IC50 was 0.05 to 0.1 µM.

`COc1cccc(F)c1-c1nccc(Nc2cc(N3CC[C@@H](O)[C@H](N)C3)c(-c3cnn(C(F)F)c3)cn2)n1` [Example 209, (3R,4R)-3-amino-1-(5-(1-(difluoromethyl)-1H-pyrazol-4-yl)-2-((2-(2-fluoro-6-methoxyphenyl)pyrimidin-4-yl)amino)pyridin-4-yl)piperidin-4-ol hydrochloride] was tested. Which IC50 did it give?
Its IC50 is no more than 0.01 µM.

Which IC50 does the source give for `COc1cccc(F)c1-c1nccc(Nc2cc(N3CCC[C@H](N)C3)c(-c3cnn(CC(F)(F)F)c3)nn2)n1` [Example 175, (S)-5-(3-aminopiperidin-1-yl)-N-(2-(2-fluoro-6-methoxyphenyl)pyrimidin-4-yl)-6-(1-(2,2,2-trifluoroethyl)-1H-pyrazol-4-yl)pyridazin-3-amine hydrochloride] here?
Its IC50 is no more than 0.01 µM.

Which IC50 does the source give for `COc1cc(F)cc(F)c1-c1nccc(Nc2cc(N3CCC[C@H](O)C3)c(-c3cnn(CC(F)(F)F)c3)cn2)n1` [Example 174, (S)-1-(2-((2-(2,4-difluoro-6-methoxyphenyl)pyrimidin-4-yl)amino)-5-(1-(2,2,2-trifluoroethyl)-1H-pyrazol-4-yl)pyridin-4-yl)piperidin-3-ol] here?
The IC50 was no more than 0.01 µM.

For `O[C@H]1CCCN(c2cc(Nc3ccnc(-c4ccc5cccnc5c4F)n3)ncc2-c2cnn(C3CCOCC3)c2)C1` [Example 29, (S)-1-(2-((2-(8-fluoroquinolin-7-yl)pyrimidin-4-yl)amino)-5-(1-(tetrahydro-2H-pyran-4-yl)-1H-pyrazol-4-yl)pyridin-4-yl)piperidin-3-ol], which IC50 is on record?
The IC50 was no more than 0.01 µM.

For `COc1cccc(F)c1-c1nc(Nc2cc(N3CC[C@@H](F)[C@H](N)C3)c(-c3cnn(C(F)F)c3)cn2)ccc1[N+](=O)[O-]` [Example 334, 4-((3R,4R)-3-amino-4-fluoropiperidin-1-yl)-5-(1-(difluoromethyl)-1H-pyrazol-4-yl)-N-(6-(2-fluoro-6-methoxyphenyl)-5-nitropyridin-2-yl)pyridin-2-amine hydrochloride], which IC50 is on record?
The IC50 was no more than 0.01 µM.

Which IC50 does the source give for `COc1cccc(F)c1-c1nccc(Nc2cc(N3CCC[C@H](O)C3)c(-c3cnn(CC(F)(F)F)c3)cn2)n1` [Example 16, (S)-1-(2-((2-(2-fluoro-6-methoxyphenyl)pyrimidin-4-yl)amino)-5-(1-(2,2,2-trifluoroethyl)-1H-pyrazol-4-yl)pyridin-4-yl)piperidin-3-ol] here?
Its IC50 is no more than 0.01 µM.

`COc1cccc(F)c1-c1nccc(Nc2cc(N3CCC[C@H](N)C3)c(-c3cnc(C4CCN(C)CC4)s3)cn2)n1` [Example 98, (S)-N-(4-(3-aminopiperidin-1-yl)-5-(2-(1-methylpiperidin-4-yl)thiazol-5-yl)pyridin-2-yl)-2-(2-fluoro-6-methoxyphenyl)pyrimidin-4-amine hydrochloride] was tested. Which IC50 did it give?
The IC50 was no more than 0.01 µM.

With `COc1cccc(F)c1-c1nccc(Nc2cc(N3CCC[C@H](N)C3)c(-c3cnn(CCO)c3)cn2)n1` [Example 133, (S)-2-(4-(4-(3-aminopiperidin-1-yl)-6-((2-(2-fluoro-6-methoxyphenyl)pyrimidin-4-yl)amino)pyridin-3-yl)-1H-pyrazol-1-yl)ethan-1-ol hydrochloride] as the molecule, how does the IC50 read?
Its IC50 is no more than 0.01 µM.

Which IC50 does the source give for `COc1cccc(F)c1-c1nccc(Nc2cc(N3CCC[C@H](N)C3)c(-c3ccc(N4CCCC4)nc3)cn2)n1` [Example 119, (S)-4-(3-aminopiperidin-1-yl)-N-(2-(2-fluoro-6-methoxyphenyl)pyrimidin-4-yl)-6′-(pyrrolidin-1-yl)-[3,3′-bipyridin]-6-amine hydrochloride] here?
Its IC50 is no more than 0.01 µM.

How did the IC50 turn out when `COc1cc(F)cc(F)c1-c1nccc(Nc2cc(N3C[C@@H](N)C[C@H](F)C3)c(-c3cnn(CC(F)(F)F)c3)cn2)n1` [Example 333, N-(4-((3S,5S)-3-amino-5-fluoropiperidin-1-yl)-5-(1-(2,2,2-trifluoroethyl)-1H-pyrazol-4-yl)pyridin-2-yl)-2-(2,4-difluoro-6-methoxyphenyl)pyrimidin-4-amine hydrochloride] was run?
Its IC50 is no more than 0.01 µM.

`COc1cc(F)cc(F)c1-c1nccc(Nc2cc(N3CCC[C@H](N)C3)c(C#CC3(C)CCOCC3)cn2)n1` [Example 311, (S)-N-(4-(3-aminopiperidin-1-yl)-5-((4-methyltetrahydro-2H-pyran-4-yl)ethynyl)pyridin-2-yl)-2-(2,4-difluoro-6-methoxyphenyl)pyrimidin-4-amine] was tested. Which IC50 did it give?
The IC50 was no more than 0.01 µM.

`COc1cc(F)cc(F)c1-c1nccc(Nc2cc(N3C[C@@H](N)C[C@@H](F)C3)c(-c3cnn(C(C)C)c3)cn2)n1` [Example 335, N-(4-((3S,5R)-3-amino-5-fluoropiperidin-1-yl)-5-(1-isopropyl-1H-pyrazol-4-yl)pyridin-2-yl)-2-(2,4-difluoro-6-methoxyphenyl)pyrimidin-4-amine] was tested. Which IC50 did it give?
Its IC50 is no more than 0.01 µM.

For `COc1cccc(F)c1-c1nc(Nc2cc(N3CCC[C@H](O)C3)c(C(=O)N[C@@H]3CCN(C)C3)cn2)ccc1[N+](=O)[O-]` [Example 203, 6-((6-(2-fluoro-6-methoxyphenyl)-5-nitropyridin-2-yl)amino)-4-((S)-3-hydroxypiperidin-1-yl)-N-((R)-1-methylpyrrolidin-3-yl)nicotinamide], which IC50 is on record?
The IC50 was no more than 0.01 µM.

How did the IC50 turn out when `COc1cccc(F)c1-c1nccc(Nc2cc(N3C[C@@H](N)C[C@H](F)C3)c(-c3cnn(C(F)F)c3)cn2)n1` [Example 304, N-(4-((3S,5S)-3-amino-5-fluoropiperidin-1-yl)-5-(1-(difluoromethyl)-1H-pyrazol-4-yl)pyridin-2-yl)-2-(2-fluoro-6-methoxyphenyl)pyrimidin-4-amine hydrochloride] was run?
Its IC50 is no more than 0.01 µM.

Which IC50 does the source give for `COc1cccc(F)c1-c1nccc(Nc2cc(N3CCC[C@H](O)C3)c(-c3ccc4nncn4c3)cn2)n1` [Example 62, (S)-1-(5-([1,2,4]triazolo[4,3-a]pyridin-6-yl)-2-((2-(2-fluoro-6-methoxyphenyl)pyrimidin-4-yl)amino)pyridin-4-yl)piperidin-3-ol] here?
Its IC50 is 0.05 to 0.1 µM.

Which IC50 does the source give for `COc1cccc(F)c1-c1nc(Nc2cc(N3CCC[C@H](O)C3)c(-c3cnn(C4CCOCC4)c3)cn2)ccc1F` [Example 40, (3S)-1-(2-((5-fluoro-6-(2-fluoro-6-methoxyphenyl)pyridin-2-yl)amino)-5-(1-(tetrahydro-2H-pyran-4-yl)-1H-pyrazol-4-yl)pyridin-4-yl)piperidin-3-ol] here?
Its IC50 is no more than 0.01 µM.
